Data published in US20250042925A1, “Improved Compositions and Methods for Targeting Mitochondria in Cancer Cells” (The Medical College of Wisconsin, Inc., priority 2021, published 2025).
“Also recorded” adds a separate entry of the source.

Assay: Quantitative 19F-NMR of compound persistence in tumor, blood and liver
Assay type: in vivo, mice
Procedure: To validate ^19F-NMR as a viable detection approach, the persistence of pCF3-MMe in tumors was analyzed. KPC1242 engrafted mice were administered 1 mg/mouse pCF3-MMe starting 12 days after implantation. […] We next designed a quantitative NMR approach to measure the in vivo persistence of pCF3-MMe. First, serial dilutions of known concentrations of pCF3-MMe were prepared, and the intensity of the NMR peaks at a set scan number (n=64) was used to create a standard curve. Next, a one-phase decay least-squares fit equation was generated to calculate the amount of pCF3-MMe at each time point using the standardized scan number.
Cells (1×10^7 cells/10 cm dish) were allowed to adhere overnight and then treated with varying concentrations of mitochondria-targeted compounds. Compounds were extracted using multiple methods and optimized for detection and quantification: A) Cells or tumors were placed in a dry ice ethanol bath followed by 80% v/v MeOH in water. Cells were placed on a dry ice ethanol bath on an orbital shaker for 20 minutes, and then cells were collected and centrifuged at 10,000×g; B) Post-treatment cells were lifted with TrypLE (Gibco, Cat #11558856) and centrifuged, then compound was extracted from the cells or tumors with 9:1 CHCl3:H2O, CH2Cl2, or 1:1 MeCN:H2O. Following extraction, solvents were evaporated using a Biotage V-10 Touch (Uppsala, Sweden), and before NMR acquisition, samples were resuspended in an equal volume of DMSO-d6.
^19F 1D-NMR spectra were collected on a Bruker Avance-III 500 MHz NMR spectrometer equipped with a 1H&^19F/13C/15N-TCI cryoprobe. […] To evaluate pCF3-MMe concentrations in biological samples, a standard curve was generated using pCF3-MMe concentrations of 0.25, 0.50, 0.75, 1.0, 1.25, and 1.5 mg/mL, and the resulting peak intensities were analyzed by linear regression. […]
All animal studies were approved by the Institutional Animal Care and Use Committees at the Medical College of Wisconsin. […] Tumors were excised, and volume (length×width×depth=mm^3) was measured post-mortem using calipers. […]

Question: For `N=C(N)NC(=N)NCCCCCCCCCC[P+](c1ccc(C(F)(F)F)cc1)(c1ccc(C(F)(F)F)cc1)c1ccc(C(F)(F)F)cc1.[Br-]` [pCF3-MMe, (10-(3-carbamimidoylguanidino)decyl)tris(4-(trifluoromethyl)phenyl)phosphonium bromide], which “detection in the blood and liver” value (2 hours after injection, 1 mg) is on record?
Answer: The value was “undetectable; also recorded: not detected”.

Question: What about the “detection in the blood and liver” value (6 hours after injection) of the same molecule?
Answer: The value was “barely detectable above the signal-to-noise ratio”.

Question: What about the “levels within the tumors” value (24 hours after injection, 1 mg/mouse) of the same molecule?
Answer: Its value is “measurable levels”.
